Drawing on patent publication US20240409585A1, “MACROCYCLIC IMMUNOMODULATORS” (priority 2021, published 2024), this text covers IC50 for 14 compounds.

A word on the IC50: it is the concentration that inhibits the measured activity by half.

Structures are written as SMILES. Bridge positions count the residues as written; N and C are the ends. Square brackets hold non-standard residues; d marks the D form. Peptide text beside a SMILES is read from it. * marks the point of attachment. ξ: configuration not given here. Phe(3-CF3) = N[C@@H](Cc1cccc(C(F)(F)F)c1)C(=O)O; Ala(morpholin-4-yl) = N[C@@H](CN1CCOCC1)C(=O)O; Phe(4-COOH) = N[C@@H](Cc1ccc(C(=O)O)cc1)C(=O)O; Bip = N[C@@H](Cc1ccc(-c2ccccc2)cc1)C(=O)O; Phe(3-CN) = N#Cc1cccc(C[C@H](N)C(=O)O)c1; Phe(3-OMe) = COc1cccc(C[C@H](N)C(=O)O)c1; Phe(4-CN) = N#Cc1ccc(C[C@H](N)C(=O)O)cc1; Phe(3-F) = N[C@@H](Cc1cccc(F)c1)C(=O)O; Phe(3-Me) = Cc1cccc(C[C@H](N)C(=O)O)c1; Bta = N[C@@H](Cc1csc2ccccc12)C(=O)O; Val(3-OH) = CC(C)(O)[C@H](N)C(=O)O; Cha = N[C@@H](CC1CCCCC1)C(=O)O; Thr(3ξ) = CC(O)[C@H](N)C(=O)O; Carboxymethyl = O=C(O)C*; NMeA = CN[C@@H](C)C(=O)O; Nle = CCCC[C@H](N)C(=O)O; Orn = NCCC[C@H](N)C(=O)O; Pra = C#CC[C@H](N)C(=O)O; Dab = NCC[C@H](N)C(=O)O; Nva = CCC[C@H](N)C(=O)O; Dap = NC[C@H](N)C(=O)O

The experiment deals with T1, PE-labeled human PD-L1-Ig binding to Jurkat cell line over-expressing human PD-1 (Jurkat-PD-1) (Homo sapiens, UniProt Q15116).
T1 construct: expressed in transfected cells; host or cells: Jurkat
T1 sequence (Q15116 25-288): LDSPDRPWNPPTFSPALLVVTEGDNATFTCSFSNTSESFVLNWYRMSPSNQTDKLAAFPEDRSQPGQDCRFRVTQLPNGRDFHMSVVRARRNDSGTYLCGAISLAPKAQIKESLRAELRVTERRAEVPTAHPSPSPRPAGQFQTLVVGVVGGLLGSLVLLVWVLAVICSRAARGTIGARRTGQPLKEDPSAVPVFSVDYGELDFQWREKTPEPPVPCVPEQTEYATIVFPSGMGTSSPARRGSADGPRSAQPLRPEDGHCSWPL
As to the kind of experiment: Jurkat-PD-1 Cell Binding High-Content Screening Assay (CBA): Method 1. Conditions: Jurkat-hPD-1 cells, PE-labeled PD-L1-Ig 20 nM final; read-out: Jurkat HPDL1 PD1 IC50 (uM) (Method 1).
`CC(C)C[C@H]1NC(=O)[C@H](C)N(C)C(=O)[C@H](CCC(N)=O)NC(=O)[C@H](Cc2ccc(-c3ccccc3)cc2)NC(=O)[C@H](Cc2ccc(C(=O)O)cc2)NC(=O)[C@H](Cc2cccc(C(F)(F)F)c2)NC(=O)[C@H](CC(=O)O)NC(=O)[C@H](Cc2ccc(OCC(=O)O)cc2)NC(=O)[C@H](CN2CCOCC2)NC(=O)CSC[C@@H](C(=O)N[C@@H](CCN)C(N)=O)NC(=O)[C@H](CCCN)NC(=O)[C@H](C(C)C)NC(=O)[C@H](CC2CCCCC2)NC(=O)[C@H](CCN)NC1=O` [Example 2272] ({CH2CO}-[Ala(morpholin-4-yl)]Y(Carboxymethyl)D[Phe(3-CF3)][Phe(4-COOH)][Bip]Q[NMeA][dL][Dab][Cha]V[Orn]C[Dab]-NH2; thioether N-14): the half-inhibitory concentration (IC50) is 0.11 µM.

As to `CCNC(=O)[C@H](CCN)NC(=O)[C@@H]1CSCC(=O)N[C@@H]([C@@H](C)O)C(=O)N[C@@H](Cc2cccc(C#N)c2)C(=O)N[C@@H](CC(=O)O)C(=O)N[C@@H](Cc2cccc(C)c2)C(=O)N[C@@H](Cc2cccc(F)c2)C(=O)N[C@@H](Cc2ccc(-c3ccccc3)cc2)C(=O)N[C@@H](Cc2ccc(OCC(=O)O)cc2)C(=O)N(C)[C@@H](C)C(=O)N[C@H](CC(C)C)C(=O)N[C@@H](CCN)C(=O)N[C@@H](CC2CCCCC2)C(=O)N[C@@H](C(C)(C)O)C(=O)N[C@@H](CO)C(=O)N1` [Compound 1842] ({CH2CO}-T[Phe(3-CN)]D[Phe(3-Me)][Phe(3-F)][Bip]Y(Carboxymethyl)[NMeA][dL][Dab][Cha][Val(3-OH)]SC[Dab]-NHEt; thioether N-14), the IC50 is 0.02 µM.

For `Cc1cccc(C[C@@H]2NC(=O)[C@H](CC(=O)O)NC(=O)[C@H](Cc3ccc(C(=O)O)cc3)NC(=O)[C@H](Cc3ccc(OCC(=O)O)cc3)NC(=O)CSC[C@@H](C(=O)N[C@H](CC(N)=O)C(N)=O)NC(=O)[C@H](CO)NC(=O)[C@H](C(C)C)NC(=O)[C@H](CC(C)C)NC(=O)[C@H](CCN)NC(=O)[C@@H](CC(C)C)NC(=O)[C@H](C)N(C)C(=O)[C@H](C(C)C)NC(=O)[C@H](Cc3ccc(-c4ccccc4)cc3)NC(=O)[C@H](CC(C)C)NC2=O)c1` [Compound 2112] ({CH2CO}-Y(Carboxymethyl)[Phe(4-COOH)]D[Phe(3-Me)]L[Bip]V[NMeA][dL][Dab]LVSC[dN]-NH2; thioether N-14), the half-inhibitory concentration (IC50) turned out to be 0.02 µM.

In the case of `CCCC[C@@H]1NC(=O)[C@H](CCCNC(=N)N)NC(=O)[C@@H](CC(C)C)NC(=O)[C@H](C)N(C)C(=O)[C@H](CCCNC(=N)N)NC(=O)[C@H](Cc2ccc(-c3ccccc3)cc2)NC(=O)[C@H](C(C)C)NC(=O)[C@H](Cc2c[nH]c3ccccc23)NC(=O)[C@H](CC(=O)O)NC(=O)[C@H](Cc2ccc(O)cc2)NC(=O)[C@H](CC(N)=O)NC(=O)CSC[C@@H](C(=O)N[C@@H](C)C(N)=O)NC(=O)[C@H]([C@@H](C)O)NC(=O)[C@H](C(C)C)NC1=O` [Compound 1282] ({CH2CO}-NYDWV[Bip]R[NMeA][dL]R[Nle]VTCA-NH2; thioether N-14), the IC50 was 0.13 µM.

Turning to `C#CC[C@H](NC(=O)[C@@H](CC(N)=O)NC(=O)[C@@H]1CSCC(=O)N[C@@H](Cc2ccc(OCC(=O)O)cc2)C(=O)N[C@@H](Cc2ccc(OCC(=O)O)cc2)C(=O)N[C@@H](CC(=O)O)C(=O)N[C@@H](Cc2c[nH]c3ccccc23)C(=O)N[C@@H](C(C)C)C(=O)N[C@@H](Cc2ccc(-c3ccccc3)cc2)C(=O)N[C@@H]([C@@H](C)CC)C(=O)N(C)[C@@H](C)C(=O)N[C@H](CC(C)C)C(=O)N[C@@H](CCC)C(=O)N[C@@H](CC2CCCCC2)C(=O)N[C@@H](C(C)(C)O)C(=O)N[C@@H](CO)C(=O)N1)C(N)=O` [Compound 1718] ({CH2CO}-Y(Carboxymethyl)Y(Carboxymethyl)DWV[Bip]I[NMeA][dL][Nva][Cha][Val(3-OH)]SC[dN][Pra]-NH2; thioether N-14), the IC50 was determined as 0.03 µM.

On to `CC(C)C[C@@H]1NC(=O)[C@H](CCCNC(=N)N)NC(=O)[C@@H](CC(C)C)NC(=O)[C@H](C)N(C)C(=O)[C@H](CCCNC(=N)N)NC(=O)[C@H](Cc2ccc(-c3ccccc3)cc2)NC(=O)[C@H](C(C)C)NC(=O)[C@H](Cc2c[nH]c3ccccc23)NC(=O)[C@H](CC(=O)O)NC(=O)[C@H](Cc2ccc(C#N)cc2)NC(=O)[C@H](Cc2ccccc2)NC(=O)CSC[C@@H](C(=O)N[C@@H](C)C(N)=O)NC(=O)[C@H]([C@@H](C)O)NC(=O)[C@H](C(C)C)NC1=O` [Compound 1100] ({CH2CO}-F[Phe(4-CN)]DWV[Bip]R[NMeA][dL]RLVTCA-NH2; thioether N-14), for which the IC50 worked out at 0.53 µM.

On to `CC(C)C[C@@H]1NC(=O)[C@H](CCCNC(=N)N)NC(=O)[C@H](Cc2csc3ccccc23)NC(=O)[C@H](C)N(C)C(=O)[C@H](CCCNC(=N)N)NC(=O)[C@H](Cc2ccc(-c3ccccc3)cc2)NC(=O)[C@H](C(C)C)NC(=O)[C@H](Cc2c[nH]c3ccccc23)NC(=O)[C@H](CC(=O)O)NC(=O)[C@H](Cc2ccc(O)cc2)NC(=O)[C@H](Cc2cnc[nH]2)NC(=O)CSC[C@@H](C(=O)NCC(N)=O)NC(=O)[C@H](CO)NC(=O)[C@H](C(C)C)NC1=O` [Compound 1025] ({CH2CO}-HYDWV[Bip]R[NMeA][Bta]RLVSCG-NH2; thioether N-14), for which the IC50 amounted to 0.12 µM.

As to `CC(C)C[C@@H]1NC(=O)[C@H](CCCCN)NC(=O)[C@@H](CC(C)C)NC(=O)[C@H](C)N(C)C(=O)[C@H](Cc2cnc[nH]2)NC(=O)[C@H](Cc2ccc(-c3ccccc3)cc2)NC(=O)[C@H](C(C)C)NC(=O)[C@H](Cc2c[nH]c3ccccc23)NC(=O)[C@H](CC(=O)O)NC(=O)[C@H](Cc2ccc(O)cc2)NC(=O)[C@H](CC(N)=O)NC(=O)CSC[C@@H](C(=O)N[C@@H](C)C(N)=O)NC(=O)[C@H]([C@@H](C)O)NC(=O)[C@H](C(C)C)NC1=O` [Compound 1481] ({CH2CO}-NYDWV[Bip]H[NMeA][dL]KLVTCA-NH2; thioether N-14), the IC50 is 0.12 µM.

In the case of `CC(C)C[C@@H]1NC(=O)[C@H](CCCNC(=N)N)NC(=O)[C@@H](CC(C)C)NC(=O)[C@H](C)N(C)C(=O)[C@H](C(C)C)NC(=O)[C@H](Cc2ccc(-c3ccccc3)cc2)NC(=O)[C@H](C(C)C)NC(=O)[C@H](Cc2c[nH]c3ccccc23)NC(=O)[C@H](CC(=O)O)NC(=O)[C@H](Cc2ccc(O)cc2)NC(=O)[C@H](CC(N)=O)NC(=O)CSC[C@@H](C(=O)N[C@@H](C)C(N)=O)NC(=O)[C@H]([C@@H](C)O)NC(=O)[C@H](C(C)C)NC1=O` [Compound 1216] ({CH2CO}-NYDWV[Bip]V[NMeA][dL]RLVTCA-NH2; thioether N-14), the 50% inhibitory concentration (IC50) came out at 0.03 µM.

With `CC(C)C[C@@H]1NC(=O)[C@H](Cc2c[nH]c3ccccc23)NC(=O)[C@H](CC(=O)O)NC(=O)[C@H](Cc2ccc(O)cc2)NC(=O)[C@H](Cc2ccccc2)NC(=O)CSC[C@@H](C(=O)N[C@@H](C)C(N)=O)NC(=O)[C@H](CO)NC(=O)[C@H](C(C)C)NC(=O)[C@H](CC(C)C)NC(=O)[C@H](CCCCN)NC(=O)[C@@H](C)NC(=O)[C@H](C)N(C)C(=O)[C@H](CCC(=O)O)NC(=O)[C@H](Cc2ccc(-c3ccccc3)cc2)NC1=O` [Compound 1767] ({CH2CO}-FYDWL[Bip]E[NMeA][dA]KLVSCA-NH2; thioether N-14), the half-maximal inhibitory concentration (IC50) was determined as 0.04 µM.

Consider `COc1cccc(C[C@@H]2NC(=O)[C@H](CN)NC(=O)CSC[C@@H](C(=O)NCC(N)=O)NC(=O)[C@H](CO)NC(=O)[C@H](C(C)C)NC(=O)[C@H](CC(C)C)NC(=O)[C@H](CC(N)=O)NC(=O)[C@@H](CC(C)C)NC(=O)[C@H](C)N(C)C(=O)[C@H](C(C)C)NC(=O)[C@H](Cc3ccc(-c4ccccc4)cc3)NC(=O)[C@H](CC(C)C)NC(=O)[C@H](Cc3c[nH]c4ccccc34)NC(=O)[C@H](CC(=O)O)NC2=O)c1` [Compound 1522] ({CH2CO}-[Dap][Phe(3-OMe)]DWL[Bip]V[NMeA][dL]NLVSCG-NH2; thioether N-14), for which the IC50 came to 0.05 µM.

In the case of `CC(C)C[C@@H]1NC(=O)[C@H](Cc2c[nH]c3ccccc23)NC(=O)[C@H](CC(=O)O)NC(=O)[C@H](Cc2ccc(O)cc2)NC(=O)[C@H](Cc2ccccc2)NC(=O)CSC[C@@H](C(=O)N[C@@H](C)C(N)=O)NC(=O)[C@H](CO)NC(=O)[C@H](C(C)C)NC(=O)[C@H](CC(C)C)NC(=O)[C@H](CC(N)=O)NC(=O)[C@@H](C(C)C)NC(=O)[C@H](C)N(C)C(=O)[C@H](C(C)C)NC(=O)[C@H](Cc2ccc(-c3ccccc3)cc2)NC1=O` [Compound 1771] ({CH2CO}-FYDWL[Bip]V[NMeA][dV]NLVSCA-NH2; thioether N-14), the IC50 is 0.04 µM.

As for `CC(C)C[C@@H]1NC(=O)[C@H](CCCN)NC(=O)[C@@H](CC(C)C)NC(=O)[C@H](C)N(C)C(=O)[C@H](CCCNC(=N)N)NC(=O)[C@H](Cc2ccc(-c3ccccc3)cc2)NC(=O)[C@H](C(C)C)NC(=O)[C@H](Cc2c[nH]c3ccccc23)NC(=O)[C@H](CC(=O)O)NC(=O)[C@H](Cc2cnc[nH]2)NC(=O)[C@H](Cc2cnc[nH]2)NC(=O)CSC[C@@H](C(=O)N[C@@H](C)C(N)=O)NC(=O)[C@H]([C@@H](C)O)NC(=O)[C@H](C(C)C)NC1=O` [Compound 1136] ({CH2CO}-HHDWV[Bip]R[NMeA][dL][Orn]LVTCA-NH2; thioether N-14), the IC50 was 0.21 µM.

Regarding `CC(=O)NCC[C@H](NC(=O)[C@@H]1CSCC(=O)N[C@@H](C(C)O)C(=O)N[C@@H](Cc2ccc(OCC(=O)O)cc2)C(=O)N[C@@H](CC(=O)O)C(=O)N[C@@H](Cc2cccc(C)c2)C(=O)N[C@@H](Cc2ccc(C(=O)O)cc2)C(=O)N[C@@H](Cc2ccc(-c3ccccc3)cc2)C(=O)N[C@@H](Cc2ccc(OCC(=O)O)cc2)C(=O)N(C)[C@@H](C)C(=O)N[C@H](CC(C)C)C(=O)N[C@@H](CCN)C(=O)N[C@@H](CC2CCCCC2)C(=O)N[C@@H](C(C)(C)O)C(=O)N[C@@H](Cc2cnc[nH]2)C(=O)N1)C(N)=O` (stereo partly drawn) [Compound 2161] ({CH2CO}-[Thr(3ξ)]Y(Carboxymethyl)D[Phe(3-Me)][Phe(4-COOH)][Bip]Y(Carboxymethyl)[NMeA][dL][Dab][Cha][Val(3-OH)]HC[Dab](Ac)-NH2; thioether N-14), the 50% inhibitory concentration (IC50) came to 0.04 µM.
